# Legend:
# [1] = Solubility studies on tepoxalin in various vehicles; format: physicochemical
# Excerpt: The low aqueous solubility of tepoxalin prompted solubility experiments with oils, surfactants, hydroxypropyl-beta-cyclodextrin, and combinations thereof. These experiments are summarized above in Table 1. A tepoxalin content of greater than 0.1% could be attained with a microemulsion using 1% castor oil and 2% of a Tween (polysorbate). […] The sequence of adding, mixing, and sonicating the drug and excipients is important in attaining a concentration greater than 0.1%.
# Thus, 0.134% of the 0.15% drug in the emulsion resides in the interface.
# [2] = Accelerated degradation of tepoxalin (16 hours at 100°C, HPLC); format: physicochemical
# Protocol: The results of the first stability study prompted an investigation for a way to reformulate. Tepoxalin appears to hydrolyze at the amide group to form a carboxylic acid. An accelerated procedure has been developed to observe this degradation within 16 hours. The sample is analyzed by reversed-phase HPLC using a diode array for detection. […] With disodium Edetate in the microemulsion, the drug degraded at and above pH 7.0; degradation was minimal at pH's 5.0, 5.5 and 6.0. Thus, a second stability study was begun with 0.03% disodium Edetate in the formulation and the pH adjusted to 5.9 - 6.1 with a citric acid/sodium phosphate dibasic buffer.
# A number of experiments were performed in succession in order to elucidate a mechanism for the degradation of tepoxalin in water and in the microemulsion and to determine optimum conditions for the tepoxalin microemulsion. The drug is suspected of vulnerability to acid and base catalysis of its […] amide group forming a carboxylic acid. The experiments and results: • (a) 0.1% tepoxalin was dissolved in 50:50 water: ethanol and aliquots were pH adjusted with 1M NaOH to 5.0, 6.0, 7.0, 8.0 and 12.6. The aliquots were heated in capped reaction vials for 16 hours at 100°C.
# Two drops of 1M citric acid solution were added to an aliquot (1 ml) and the pH was adjusted with 1.0 M sodium phosphate dibasic to pH 5.0, 6.0, 7.0, and 7.6. The samples were heated as before.
# The chromatograms show two major degradation products: one eluting before tepoxalin and another after.
# The optimum pH appears between pH 6.2 and 6.4, but there is still significant degradation. • (d) The previous experiment (c) was repeated with disodium Edetate 0.03% in each sample and with the same pH range.
# The presence of the second degradate that elutes before tepoxalin is also minimal. • (e) Experiment (d) was repeated with a broader pH range: 5.0, 5.5, 6.0, and 7.0.
# rabbit cornea = experiment: In vitro corneal penetration in modified Ussing chambers; format: in vitro ADME; settings: 0.1% suspension and 0.1% microemulsion, 0 to 240 minutes
# Protocol: Modified Ussing type chambers (H.F. Edelhauser, J.R. Hoffert, P.O. Fromm, Invest. Ophthalmol. Vis. Sci., 4:290-296 (1965)) designed with 2.5 ml donor and 2.5 ml receiver cells (separated by the cornea which is mounted between two sealing rings) are used for the studies to determine penetration of the cornea by the microemulsions of the invention. The system is 2-chambered (in vitro cells) (see Figure 1) and is designed to monitor the penetration of drug entities across biological membranes. Usually the cells are temperature controlled by means of an exterior water jacket; the stirring of the dosing and receiving solutions in the cells is achieved by bubbling a gas through the cells. In the case of the cornea, the gas is a mixture of 5% CO₂ balanced with oxygen, to maintain physiological Ph.
# The eyes were enucleated with the conjunctival sac and lids attached. The cornea was excised and mounted using the Dikstein and Maurice Technique (S. Dikstein and D.M. Maurice, J. Physiol., 221: 29-41 (1972)). […]
# 100 µl Aliquots were sampled from the receiver side over a 4-hour period (0, 15, 30, 45, 60, 90, 120, 180 and 240 minutes). […] The mounted corneas were removed from the cells and the percentage hydration calculated by weighing the isolated tissue before and after drying (the corneas were placed in an oven overnight at 45°C). […] Untreated corneas were assessed as controls. […]
smiles,measurement,setting,value
"COc1ccc(-n2nc(CCC(=O)N(C)O)cc2-c2ccc(Cl)cc2)cc1 [Tepoxalin, 3-[5-(4-chlorophenyl)-1-(4-methoxyphenyl)-3-pyrazolyl]-N-hydroxy-N-methylpropanamide]",Tepoxalin Solubility,"[1]; Matrix: Water, Neat",0.00044%
same,Tepoxalin Solubility,"[1]; Oil, Surfactant Microemulsion: castor oil 1%, Tween 60 2%",0.15%
same,Tepoxalin Solubility,"[1]; Oil, Surfactant Microemulsion: castor oil 1%, Tween 80 2% (tepoxalin is added after microemulsion)",0.085%
same,Tepoxalin Solubility,"[1]; Oil, Surfactant Microemulsion: castor oil 1%, Tween 80 2% (tepoxalin is added before emulsion is prepared)",0.147%
same,Tepoxalin Solubility,"[1]; Oil, Surfactant Microemulsion: castor oil 2%, Tween 80 2%",0.106%
same,Tepoxalin Solubility,"[1]; Oil, Surfactant Microemulsion: castor oil 3%, Pluronic P-105 7%",0.108%
same,Tepoxalin Solubility,"[1]; Oils: Cottonseed, Neat",0.06%
same,Tepoxalin Solubility,"[1]; Oils: castor, Neat",1.6%
same,Tepoxalin Solubility,"[1]; Oils: mineral, Neat",0.0%
same,Tepoxalin Solubility,"[1]; Oils: perfluoro-decalin, Neat",0.0%
same,Tepoxalin Solubility,"[1]; Oils: sesame, Neat",0.4%
same,Tepoxalin Solubility,"[1]; Oils: sunflower Seed, Neat",0.4%
same,Tepoxalin Solubility,"[1]; Surfactant and HP-β-CD Solution: HP-β-CD 5%, Tween 80 2%",0.097%
same,Tepoxalin Solubility,"[1]; Surfactant and HP-β-CD Solution: HP-β-CD 10%, Tween 80 1%",0.113%
same,Tepoxalin Solubility,"[1]; Surfactants: Pluronic F-127, aqueous 6%",0.035%
same,Tepoxalin Solubility,"[1]; Surfactants: Pluronic P-105, aqueous 6% w/w",0.099%
same,Tepoxalin Solubility,"[1]; Surfactants: Tween 20, aqueous 2%",0.053%
same,Tepoxalin Solubility,"[1]; Surfactants: Tween 40, aqueous 2%",0.066%
same,Tepoxalin Solubility,"[1]; Surfactants: Tween 60, aqueous 2%",0.079%
same,Tepoxalin Solubility,"[1]; Surfactants: Tween 80, aqueous 1%",0.030%
same,Tepoxalin Solubility,"[1]; Surfactants: Tween 80, aqueous 2%",0.089%
same,Tepoxalin Solubility,"[1]; Surfactants: Tween 80, aqueous 3%",0.099%
same,Tepoxalin Solubility,"[1]; Surfactants: Tween 80, aqueous 6%",0.120%
same,Maximum tepoxalin solubility for castor oil,[1]; castor oil,1.6%
same,tepoxalin content,[1]; microemulsion using 1% castor oil and 2% of a Tween (polysorbate),greater than 0.1%
same,drug in the emulsion that resides in the interface,"[1]; of the 0.15% drug in the emulsion, 1% castor oil dispersed",0.134%
same,degradation of tepoxalin,"[2]; 0.1% microemulsion (castor oil, Tween 60, citrate/phosphate buffer), pH 5.0, 6.0, 7.0, 7.6, no Edetate, 16 hours at 100°C",The degradation occurs greatest at pH 5.0 and 7.6
same,degradation of tepoxalin,"[2]; 0.1% tepoxalin in 50:50 water:ethanol, pH 5.0, 6.0, 7.0, 8.0, 12.6, 16 hours at 100°C","a degradation peak eluting after tepoxalin in samples at pH 6, 7, 8, 12.6 but not at pH 5.0"
same,pH of optimum stability,"[2]; microemulsion with disodium Edetate 0.03%, from tepoxalin peak areas and heights",optimum stability between 5.5 and 6.0
same,degradation of tepoxalin,"[2]; microemulsion with disodium Edetate 0.03%, pH 5.0, 5.5, 6.0 and 7.0","Degradation was minimal at pH 5.0, 5.5, and 6.0"
same,degradation of tepoxalin,"[2]; microemulsion with disodium Edetate 0.03%, pH 6.0 to 7.0",Degradation is minimal at pH 6.0 and increases with pH to 7.0
same,pH of minimum degradation,"[2]; microemulsion without Edetate, pH range 5 to 7.6",6.2 - 6.4
same,penetration of tepoxalin across the cornea,rabbit cornea,penetrating the cornea from both formulations

# Source: EP0480690A1, “Aqueous ophthalmic microemulsions of tepoxalin” (CIBA-GEIGY AG, priority 1990, dated 1992)
